Test results taken from patent US11583570B2, “Use of autoinducer-related pathway in inducing apoptosis and anti-infective therapy” (TSINGHUA UNIVERSITY, priority 2017, dated 2023).

Tests used:
[1] = system: reticuloma A20; assay: Annexin V/PI apoptosis detection, A20; type: cell-based
Description: (§1) Cell apoptosis was detected with Annexin V/PI apoptosis detection Kit. Briefly, cells were stimulated with HSLs or left untreated. 6 hrs later, cells were collected and stained with Annexin VFITC and PI for 15 min at RT, then the apoptotic effect was measured by flow cytometry. OT-I or OT-II splenocytes were pulsed with specific peptides or PMA and ionomycin mixture with or without HSLs or TNF α plus cycloheximide. 24 hrs later, cells and supernatants were collected separately. For OT-I activation, cells were stained with CD69 and CD8. For OT-II activation, cells were stained with CD69 and CD4. Cell activation was measured by flow cytometry. All supernatants were detected for IL-2 secretion by ELISA.

[2] = system: monocytic RAW264.7; assay: Annexin V/PI apoptosis detection, RAW264.7; type: cell-based
Description: as §1

[3] = Lipid binding assay; type: physicochemical; conditions: DOPC, DPPC, PE, cholesterol, sphingomyelin individually or in combination
Description: 1 mg/ml of each lipid species in chloroform was coated on round glass slides by evaporation.
Then the glass slices were incubated with 100 μM 3OC12 HSL in DMSO in PBS at 37° C. After the incubation, the glass slices were washed slightly with PBS for 4-5 times and lipids were dissolved with DMSO. The amount of 3OC12 HSL in each sample was measured by QS bioassay as described above.

[4] = system: TNFR1; assay: DTSSP cross-linking assay, TNFR1; type: cell-based; conditions: crosslinker DTSSP, non-reducing condition
Description: (§2) For FADD immunoprecipitation, 4 μg anti-mouse FADD pAb (Santa Cruz, H-181) were incubated with 100 μl protein A/G agarose for 2 hrs at RT. 3 million/ml purified CD4 T cells were stimulated with HSLs or left untreated. The cells were then collected and lysed with IP lysis buffer (50 mM HEPES pH 7.4, 150 mM NaCl, 1% NP-40, 1 mM EDTA, 1 mM PMSF, 1 mM NaF, 1 mM NaVO3 and protease inhibitor cocktails). The cell lysates were added into antibody-bead mixtures for 3 hrs at 4° C. Beads were then collected by low speed centrifugation (1000 g, 5 min) and washed 4 times with IP lysis buffer (300 mM NaCl added). After the last wash, pellets were suspended with 70 ul 2×SDS loading buffer and boiled for 5 min. For caspase 8 immunoprecipitation, 4 μg anti-Caspase 8 pAb (Santa Cruz, C-20) was incubated with 100 μl protein A/G agarose for 1 hr at RT. 3 million/ml H9 cells were treated with HSLs or left untreated. The samples were processed as in FADD IP. For cross-linking assay, CD4+ T cells isolated from C57BL/6 mice spleen or human THP-1 cells was stimulated with HSLs or left untreated, then cells were collected and cross-linked by 10 mM DTSSP at RT for 30 min and quenched with 1M Tris-HCl (pH7.5) for 15 min. […]

[5] = system: Fas; assay: DTSSP cross-linking assay, Fas; type: cell-based; conditions: crosslinker DTSSP, prolonged incubation
Description: as §2

[6] = target: T1, TNFR1 (1-293) mutant (Homo sapiens, UniProt P19438); assay: Single molecule photo-bleaching step counting (MSFQ), TNFR1 in HELA cells; type: cell-based; conditions: DD-deleted TNFR1-eGFP
T1 construct: human TNFR1 (1-293) mutant was amplified from human TNFR1 with specific primers and cloned into peGFP-N1 vector; expressed in transfected cells; host or cells: HeLa cells
T1 sequence (P19438 30-293): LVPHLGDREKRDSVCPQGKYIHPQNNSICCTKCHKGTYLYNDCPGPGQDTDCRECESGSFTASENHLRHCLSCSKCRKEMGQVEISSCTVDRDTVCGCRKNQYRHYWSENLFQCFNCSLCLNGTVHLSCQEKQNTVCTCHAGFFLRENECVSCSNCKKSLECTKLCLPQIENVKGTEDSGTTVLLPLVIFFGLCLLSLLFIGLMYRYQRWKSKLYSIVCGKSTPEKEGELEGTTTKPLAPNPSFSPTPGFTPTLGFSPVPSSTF
Excerpt: Then the cells were stimulated with HSLs, TNF α, or left untreated, and washed twice with PBS and fixed with 4% paraformaldehyde before imaging. GFP was excited at 488 nm with a laser power of 5 mW measured after the laser passing through the objective. […] The EM gain of the EMCCD camera was set at 300. Movies of 400 frames were acquired for each sample at a full-frame rate of 10 Hz. For imaging analysis, the background fluorescence was firstly subtracted from the movie acquired from the fixed cells using the rolling ball method in Image J software, and regions of interest on movies were selected manually according to the outline of cells. To analyze the bleaching steps, the fluorescence time courses of each fluorescent spots were first constructed by Image J plugin and bleaching steps were then counted manually.

[7] = system: TNFR1; assay: Lipid raft isolation, TNFR1 in detergent resistant domains; type: cell-based; conditions: human and mouse T cells
[8] = system: EGFR; assay: EGFR phosphorylation; type: cell-based; conditions: in the absence of the ligand

Compound: CCCCCCCCCC(=O)CC(=O)N[C@H]1CCOC1=O [3OC12 HSL, N-(3-oxo-dodecanoyl) homoserine lactone]
- sensitivity to 3OC12 HSL [1]: sensitive
- sensitivity to 3OC12 HSL [2]: sensitive
- retention by coated lipid components [3]: only lipid components containing cholesterol, sphingomyelin and DOPC were able to efficiently retain
- amount of band with approximate 3 times the molecular weight of TNFR1 monomer [4]: rapidly increased
- Fas oligomerization [5]: did not show a significant change
- three step bleaching frequency ([6]; untreated 7.1): 17.0+/−1.3%
- one step bleaching frequency ([6]; untreated 60.0): 47.1%
- TNFR1 associated with lipid rafts [7]: reduced
- EGFR phosphorylation [8]: became detectable
